In US20260116920A1, “HUMAN TRANSFERRIN RECEPTOR BINDING PEPTIDE” (PEPTIDREAM INC., priority 2021, published 2026):
pKd: −log10 of the molar value. Positions of bridges follow the written chain, without caps; N, C: chain ends. Non-standard residues stand in square brackets, D forms with d. Residues, ends and D or L forms follow the SMILES beside them. *: point of attachment. Trp(1-CH2COOH) = N[C@@H](Cc1cn(CC(=O)O)c2ccccc12)C(=O)O; NMePhe(3-Cl) = CN[C@@H](Cc1cccc(Cl)c1)C(=O)O; 3Pal(6-NH2) = Nc1ccc(C[C@H](N)C(=O)O)cn1; Lys(N3) = [N-]=[N+]=NCCCC[C@H](N)C(=O)O; NMeY = CN[C@@H](Cc1ccc(O)cc1)C(=O)O; 3Pal = N[C@@H](Cc1cccnc1)C(=O)O; 4Pal = N[C@@H](Cc1ccncc1)C(=O)O; Carboxymethyl = O=C(O)C*

The compounds below were run against T1, human transferrin receptor (hTfR) (Homo sapiens, UniProt P02786) (assay: Evaluation of molecular interaction between transferrin receptor (hTfR) and peptide using surface plasmon resonance (SPR)). Conditions: KD class for binding to hTfR by SPR; peptide with the linker shown in the same line; 'low signal indicates no activity'; read-out: SPR.
T1 construct: made in house
Format: binding
How it was run: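 Recombinant human TfR dimer (0.5 μM) was captured on a Ni-charged NTA chip and amine-coupled with EDC/NHS, then ethanolamine-capped. Peptides at 5–100 nM in HEPES pH 8.0 buffer with 150 mM NaCl, 0.05% Tween 20, 0.1% BSA and 1.0% DMSO were run by single-cycle kinetics; KD came from least-squares curve fitting.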

T1 sequence (P02786 89-760 limits assumed): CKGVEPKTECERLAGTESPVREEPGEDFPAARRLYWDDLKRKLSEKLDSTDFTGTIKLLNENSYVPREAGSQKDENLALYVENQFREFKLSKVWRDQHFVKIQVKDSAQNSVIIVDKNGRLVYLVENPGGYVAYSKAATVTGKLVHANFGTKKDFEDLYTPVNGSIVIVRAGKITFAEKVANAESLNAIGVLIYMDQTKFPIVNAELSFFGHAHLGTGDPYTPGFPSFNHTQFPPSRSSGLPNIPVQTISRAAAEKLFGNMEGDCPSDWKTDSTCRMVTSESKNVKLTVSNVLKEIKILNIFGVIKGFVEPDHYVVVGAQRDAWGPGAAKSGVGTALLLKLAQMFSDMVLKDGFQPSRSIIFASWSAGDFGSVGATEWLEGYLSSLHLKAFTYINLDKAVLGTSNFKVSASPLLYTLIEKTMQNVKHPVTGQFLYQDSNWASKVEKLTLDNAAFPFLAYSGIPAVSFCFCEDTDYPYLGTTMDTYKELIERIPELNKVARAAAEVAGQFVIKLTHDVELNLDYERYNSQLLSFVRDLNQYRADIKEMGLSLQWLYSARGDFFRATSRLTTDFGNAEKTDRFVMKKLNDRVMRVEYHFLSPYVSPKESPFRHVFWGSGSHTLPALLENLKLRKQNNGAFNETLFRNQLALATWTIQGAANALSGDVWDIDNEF

SMILES | pKd
CC[C@H](C)[C@@H]1NC(=O)[C@H](Cc2ccc(OC)cc2)NC(=O)[C@H](Cc2ccc(O)cc2)NC(=O)[C@H](CC(N)=O)NC(=O)[C@H](Cc2c[nH]c3ccccc23)N(C)C(=O)[C@H](C(C)C)NC(=O)[C@H](Cc2cccc(Cl)c2)N(C)C(=O)[C@H](C(C)C)NC(=O)[C@H](C)NC(=O)CSC[C@@H](C(=O)NCC(=O)N[C@@H](CCCCN=[N+]=[N-])C(N)=O)NC(=O)[C@H](Cc2ccc(O)cc2)N(C)C(=O)[C@H](Cc2ccc(O)cc2)NC(=O)[C@H](CCCNC(=N)N)NC(=O)[C@H](CCCNC(=N)N)NC(=O)[C@H]([C@@H](C)CC)NC1=O [894_3166] | 7.00 to 9.00
CC[C@H](C)[C@@H]1NC(=O)[C@H](Cc2ccc(OCC(=O)O)cc2)NC(=O)[C@H](Cc2ccc(O)cc2)NC(=O)[C@H](CC(N)=O)NC(=O)[C@H](Cc2cn(CC(=O)O)c3ccccc23)NC(=O)[C@H](C(C)C)NC(=O)[C@H](Cc2cccc(Cl)c2)N(C)C(=O)[C@H](C(C)C)NC(=O)[C@H](C)NC(=O)CSC[C@@H](C(=O)NCC(=O)N[C@@H](CCCCN=[N+]=[N-])C(N)=O)NC(=O)[C@H](Cc2ccc(O)cc2)N(C)C(=O)[C@H](Cc2ccccc2)NC(=O)[C@H](CCC(N)=O)NC(=O)[C@H](CCC(N)=O)NC(=O)[C@H]([C@@H](C)CC)NC1=O [894_3178] ({CH2CO}-AV[NMePhe(3-Cl)]V[Trp(1-CH2COOH)]NYY(Carboxymethyl)IIQQF[NMeY]CG[Lys(N3)]-NH2; thioether N-15) | 7.00 to 9.00
CC[C@H](C)[C@@H]1NC(=O)[C@H](Cc2cccnc2)NC(=O)[C@H](Cc2ccc(O)cc2)NC(=O)[C@H](CC(N)=O)NC(=O)[C@H](Cc2cn(CC(=O)O)c3ccccc23)NC(=O)[C@H](C(C)C)NC(=O)[C@H](Cc2cccc(Cl)c2)N(C)C(=O)[C@H](C(C)C)NC(=O)[C@H](C)NC(=O)CSC[C@@H](C(=O)NCC(=O)N[C@@H](CCCCN=[N+]=[N-])C(N)=O)NC(=O)[C@H](Cc2ccc(O)cc2)N(C)C(=O)[C@H](Cc2ccncc2)NC(=O)[C@H](CCCNC(=N)N)NC(=O)[C@H](CCCNC(=N)N)NC(=O)[C@H]([C@@H](C)CC)NC1=O [894_3185] ({CH2CO}-AV[NMePhe(3-Cl)]V[Trp(1-CH2COOH)]NY[3Pal]IIRR[4Pal][NMeY]CG[Lys(N3)]-NH2; thioether N-15) | 7.00 to 9.00
CC[C@H](C)[C@@H]1NC(=O)[C@H](Cc2cccnc2)NC(=O)[C@H](Cc2ccc(O)cc2)NC(=O)[C@H](CC(N)=O)NC(=O)[C@H](Cc2c[nH]c3ccccc23)NC(=O)[C@H](C(C)C)NC(=O)[C@H](Cc2cccc(Cl)c2)N(C)C(=O)[C@H](C(C)C)NC(=O)[C@H](C)NC(=O)CSC[C@@H](C(=O)NCC(=O)N[C@@H](CCCCN=[N+]=[N-])C(N)=O)NC(=O)[C@H](Cc2ccc(O)cc2)N(C)C(=O)[C@H](Cc2ccncc2)NC(=O)[C@H](CCCNC(=N)N)NC(=O)[C@H](CCCNC(=N)N)NC(=O)[C@H]([C@@H](C)CC)NC1=O [894_3188] ({CH2CO}-AV[NMePhe(3-Cl)]VWNY[3Pal]IIRR[4Pal][NMeY]CG[Lys(N3)]-NH2; thioether N-15) | 7.00 to 9.00
CC[C@H](C)[C@@H]1NC(=O)[C@H](Cc2cccnc2)NC(=O)[C@H](Cc2ccc(N)nc2)NC(=O)[C@H](CC(N)=O)NC(=O)[C@H](Cc2c[nH]c3ccccc23)NC(=O)[C@H](C(C)C)NC(=O)[C@H](Cc2cccc(Cl)c2)N(C)C(=O)[C@H](C(C)C)NC(=O)[C@H](C)NC(=O)CSC[C@@H](C(=O)NCC(=O)N[C@@H](CCCCN=[N+]=[N-])C(N)=O)NC(=O)[C@H](Cc2ccc(O)cc2)N(C)C(=O)[C@H](Cc2ccncc2)NC(=O)[C@H](CCCNC(=N)N)NC(=O)[C@H](CCCNC(=N)N)NC(=O)[C@H]([C@@H](C)CC)NC1=O [894_3189] ({CH2CO}-AV[NMePhe(3-Cl)]VWN[3Pal(6-NH2)][3Pal]IIRR[4Pal][NMeY]CG[Lys(N3)]-NH2; thioether N-15) | 7.00 to 9.00
CC[C@H](C)[C@@H]1NC(=O)[C@H](Cc2ccc(OC)cc2)NC(=O)[C@H](Cc2ccc(N)nc2)NC(=O)[C@H](CC(N)=O)NC(=O)[C@H](Cc2c[nH]c3ccccc23)NC(=O)[C@H](C(C)C)NC(=O)[C@H](Cc2cccc(Cl)c2)N(C)C(=O)[C@H](C(C)C)NC(=O)[C@H](C)NC(=O)CSC[C@@H](C(=O)NCC(=O)N[C@@H](CCCCN=[N+]=[N-])C(N)=O)NC(=O)[C@H](Cc2ccc(O)cc2)N(C)C(=O)[C@H](Cc2ccncc2)NC(=O)[C@H](CCCNC(=N)N)NC(=O)[C@H](CCCNC(=N)N)NC(=O)[C@H]([C@@H](C)CC)NC1=O [894_3190] | 7.00 to 9.00

The remaining lines, values ahead:

pKd | SMILES
7.00 to 9.00 | CC[C@H](C)[C@@H]1NC(=O)[C@H](Cc2ccc(OC)cc2)NC(=O)[C@H](Cc2ccc(O)cc2)NC(=O)[C@H](CC(N)=O)NC(=O)[C@H](Cc2c[nH]c3ccccc23)NC(=O)[C@H](C(C)C)NC(=O)[C@H](Cc2cccc(Cl)c2)N(C)C(=O)[C@H](C(C)C)NC(=O)[C@H](C)NC(=O)CSC[C@@H](C(=O)NCC(=O)N[C@@H](CCCCN=[N+]=[N-])C(N)=O)NC(=O)[C@H](Cc2ccc(O)cc2)N(C)C(=O)[C@H](Cc2ccc(O)cc2)NC(=O)[C@H](CCCNC(=N)N)NC(=O)[C@H](CCCCN)NC(=O)[C@H]([C@@H](C)CC)NC1=O [894_3165]
7.00 to 9.00 | CC[C@H](C)[C@@H]1NC(=O)[C@H](Cc2ccc(OCC(=O)O)cc2)NC(=O)[C@H](Cc2ccc(O)cc2)NC(=O)[C@H](CC(N)=O)NC(=O)[C@H](Cc2cn(CC(=O)O)c3ccccc23)NC(=O)[C@H](C(C)C)NC(=O)[C@H](Cc2cccc(Cl)c2)N(C)C(=O)[C@H](C(C)C)NC(=O)[C@H](C)NC(=O)CSC[C@@H](C(=O)NCC(=O)N[C@@H](CCCCN=[N+]=[N-])C(N)=O)NC(=O)[C@H](Cc2ccc(O)cc2)N(C)C(=O)[C@H](Cc2ccccc2)NC(=O)[C@H](CCCNC(=N)N)NC(=O)[C@H](CCCNC(=N)N)NC(=O)[C@H]([C@@H](C)CC)NC1=O [894_3171]
7.00 to 9.00 | CC[C@H](C)[C@@H]1NC(=O)[C@H](Cc2ccc(OCC(=O)O)cc2)NC(=O)[C@H](Cc2ccc(O)cc2)NC(=O)[C@H](CC(N)=O)NC(=O)[C@H](Cc2cn(CC(=O)O)c3ccccc23)NC(=O)[C@H](C(C)C)NC(=O)[C@H](Cc2cccc(Cl)c2)N(C)C(=O)[C@H](C(C)C)NC(=O)[C@H](C)NC(=O)CSC[C@@H](C(=O)NCC(=O)N[C@@H](CCCCN=[N+]=[N-])C(N)=O)NC(=O)[C@H](Cc2ccc(O)cc2)N(C)C(=O)[C@H](Cc2ccccc2)NC(=O)[C@H](CCCNC(=N)N)NC(=O)[C@H](CCC(=O)NCCOCCOCCOCCOCCOCCOCCOCCOC)NC(=O)[C@H]([C@@H](C)CC)NC1=O [894_3172]
7.00 to 9.00 | CC[C@H](C)[C@@H]1NC(=O)[C@H](Cc2ccc(OCC(=O)O)cc2)NC(=O)[C@H](Cc2ccc(O)cc2)NC(=O)[C@H](CC(N)=O)NC(=O)[C@H](Cc2cn(CC(=O)O)c3ccccc23)NC(=O)[C@H](C(C)C)NC(=O)[C@H](Cc2cccc(Cl)c2)N(C)C(=O)[C@H](C(C)C)NC(=O)[C@H](C)NC(=O)CSC[C@@H](C(=O)NCC(=O)N[C@@H](CCCCN=[N+]=[N-])C(N)=O)NC(=O)[C@H](Cc2ccc(O)cc2)N(C)C(=O)[C@H](Cc2ccccc2)NC(=O)[C@H](CCC(=O)NCCOCCOCCOCCOCCOCCOCCOCCOC)NC(=O)[C@H](CCCNC(=N)N)NC(=O)[C@H]([C@@H](C)CC)NC1=O [894_3173]
7.00 to 9.00 | CC[C@H](C)[C@@H]1NC(=O)[C@H](Cc2ccc(OCC(=O)O)cc2)NC(=O)[C@H](Cc2ccc(O)cc2)NC(=O)[C@H](CC(N)=O)NC(=O)[C@H](Cc2cn(CC(=O)O)c3ccccc23)NC(=O)[C@H](C(C)C)NC(=O)[C@H](Cc2cccc(Cl)c2)N(C)C(=O)[C@H](C(C)C)NC(=O)[C@H](C)NC(=O)CSC[C@@H](C(=O)NCC(=O)N[C@@H](CCCCN=[N+]=[N-])C(N)=O)NC(=O)[C@H](Cc2ccc(O)cc2)N(C)C(=O)[C@H](Cc2ccccc2)NC(=O)[C@H](CCCNC(=N)N)NC(=O)[C@H](CCC(N)=O)NC(=O)[C@H]([C@@H](C)CC)NC1=O [894_3176]
7.00 to 9.00 | CC[C@H](C)[C@@H]1NC(=O)[C@H](Cc2ccc(OCC(=O)O)cc2)NC(=O)[C@H](Cc2ccc(O)cc2)NC(=O)[C@H](CC(N)=O)NC(=O)[C@H](Cc2cn(CC(=O)O)c3ccccc23)NC(=O)[C@H](C(C)C)NC(=O)[C@H](Cc2cccc(Cl)c2)N(C)C(=O)[C@H](C(C)C)NC(=O)[C@H](C)NC(=O)CSC[C@@H](C(=O)NCC(=O)N[C@@H](CCCCN=[N+]=[N-])C(N)=O)NC(=O)[C@H](Cc2ccc(O)cc2)N(C)C(=O)[C@H](Cc2ccccc2)NC(=O)[C@H](CCC(N)=O)NC(=O)[C@H](CCCNC(=N)N)NC(=O)[C@H]([C@@H](C)CC)NC1=O [894_3177]
7.00 to 9.00 | CC[C@H](C)[C@@H]1NC(=O)[C@H](Cc2cccnc2)NC(=O)[C@H](Cc2ccc(N)nc2)NC(=O)[C@H](CC(N)=O)NC(=O)[C@H](Cc2cn(CC(=O)O)c3ccccc23)NC(=O)[C@H](C(C)C)NC(=O)[C@H](Cc2cccc(Cl)c2)N(C)C(=O)[C@H](C(C)C)NC(=O)[C@H](C)NC(=O)CSC[C@@H](C(=O)NCC(=O)N[C@@H](CCCCN=[N+]=[N-])C(N)=O)NC(=O)[C@H](Cc2ccc(O)cc2)N(C)C(=O)[C@H](Cc2ccncc2)NC(=O)[C@H](CCCNC(=N)N)NC(=O)[C@H](CCCNC(=N)N)NC(=O)[C@H]([C@@H](C)CC)NC1=O [894_3186] ({CH2CO}-AV[NMePhe(3-Cl)]V[Trp(1-CH2COOH)]N[3Pal(6-NH2)][3Pal]IIRR[4Pal][NMeY]CG[Lys(N3)]-NH2; thioether N-15)
7.00 to 9.00 | CC[C@H](C)[C@@H]1NC(=O)[C@H](Cc2ccc(OC)cc2)NC(=O)[C@H](Cc2ccc(N)nc2)NC(=O)[C@H](CC(N)=O)NC(=O)[C@H](Cc2cn(CC(=O)O)c3ccccc23)NC(=O)[C@H](C(C)C)NC(=O)[C@H](Cc2cccc(Cl)c2)N(C)C(=O)[C@H](C(C)C)NC(=O)[C@H](C)NC(=O)CSC[C@@H](C(=O)NCC(=O)N[C@@H](CCCCN=[N+]=[N-])C(N)=O)NC(=O)[C@H](Cc2ccc(O)cc2)N(C)C(=O)[C@H](Cc2ccncc2)NC(=O)[C@H](CCCNC(=N)N)NC(=O)[C@H](CCCNC(=N)N)NC(=O)[C@H]([C@@H](C)CC)NC1=O [894_3187]
